Laboratory results taken from patent publication US11572590B2, “Methods for evaluating tumor cell spheroids using 3D microfluidic cell culture device” (Dana-Farber Cancer Institute, Inc., priority 2017, dated 2023).
Where two headings read alike, the source gives them in different places.

Experiments:
Assay in all cases: SelectScreen Kinase Profiling, single point inhibition and IC50 for off-target kinases
Assay type in all cases: biochemical
off-target kinases [1] = target: off-target kinases (Homo sapiens, UniProt P29376); conditions: LTK (TYK1), ZLYTE, ATP Km app
off-target kinases [2] = target: off-target kinases (Homo sapiens, UniProt P36888); conditions: FLT3, ATP Km app, ZLYTE
off-target kinases [3] = target: off-target kinases (Homo sapiens, UniProt O95819); conditions: MAP4K4 (HGK), ATP Km app, ZLYTE
off-target kinases [4] = target: off-target kinases (Homo sapiens, UniProt P10721, A829P); conditions: KIT A829P, LanthaScreen Binding
off-target kinases [5] = target: off-target kinases (Homo sapiens, UniProt Q13882)
off-target kinases [6] = target: off-target kinases (Homo sapiens, UniProt P17612); conditions: PRKACA (PKA), ZLYTE, ATP Km app
off-target kinases [7] = target: off-target kinases (Homo sapiens, UniProt Q96GD4); conditions: AURKB (Aurora B), ATP Km app, ZLYTE
off-target kinases [8] = target: off-target kinases (Homo sapiens, UniProt Q9Y572); conditions: RIPK3, LanthaScreen Binding
off-target kinases [9] = target: T1, off-target kinases (Homo sapiens, UniProt Q05513); conditions: PRKCZ (PKC zeta); Cmpd1 1000 μM; ATP Km app; ZLYTE
T1 sequence (Q05513 1-592): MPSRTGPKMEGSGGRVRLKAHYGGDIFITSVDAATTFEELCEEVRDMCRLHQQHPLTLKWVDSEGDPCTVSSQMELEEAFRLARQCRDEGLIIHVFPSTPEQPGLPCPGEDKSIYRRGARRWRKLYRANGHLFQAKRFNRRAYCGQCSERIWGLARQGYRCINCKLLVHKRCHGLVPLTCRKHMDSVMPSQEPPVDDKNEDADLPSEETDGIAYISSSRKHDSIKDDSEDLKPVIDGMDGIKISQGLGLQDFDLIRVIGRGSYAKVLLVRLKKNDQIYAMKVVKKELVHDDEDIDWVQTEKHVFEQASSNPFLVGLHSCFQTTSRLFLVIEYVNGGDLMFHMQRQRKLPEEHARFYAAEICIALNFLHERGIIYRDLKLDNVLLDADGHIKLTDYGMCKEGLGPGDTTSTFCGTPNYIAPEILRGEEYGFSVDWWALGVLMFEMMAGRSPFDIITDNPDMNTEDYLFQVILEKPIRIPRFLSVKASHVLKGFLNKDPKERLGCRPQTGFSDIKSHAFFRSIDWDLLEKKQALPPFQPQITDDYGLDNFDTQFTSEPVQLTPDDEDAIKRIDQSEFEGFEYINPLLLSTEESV

off-target kinases [10] = target: off-target kinases (Homo sapiens, UniProt P29597); conditions: TYK2, ATP Km app, ZLYTE
Chain of off-target kinases (Homo sapiens, UniProt P29597) (P29597 whole entry): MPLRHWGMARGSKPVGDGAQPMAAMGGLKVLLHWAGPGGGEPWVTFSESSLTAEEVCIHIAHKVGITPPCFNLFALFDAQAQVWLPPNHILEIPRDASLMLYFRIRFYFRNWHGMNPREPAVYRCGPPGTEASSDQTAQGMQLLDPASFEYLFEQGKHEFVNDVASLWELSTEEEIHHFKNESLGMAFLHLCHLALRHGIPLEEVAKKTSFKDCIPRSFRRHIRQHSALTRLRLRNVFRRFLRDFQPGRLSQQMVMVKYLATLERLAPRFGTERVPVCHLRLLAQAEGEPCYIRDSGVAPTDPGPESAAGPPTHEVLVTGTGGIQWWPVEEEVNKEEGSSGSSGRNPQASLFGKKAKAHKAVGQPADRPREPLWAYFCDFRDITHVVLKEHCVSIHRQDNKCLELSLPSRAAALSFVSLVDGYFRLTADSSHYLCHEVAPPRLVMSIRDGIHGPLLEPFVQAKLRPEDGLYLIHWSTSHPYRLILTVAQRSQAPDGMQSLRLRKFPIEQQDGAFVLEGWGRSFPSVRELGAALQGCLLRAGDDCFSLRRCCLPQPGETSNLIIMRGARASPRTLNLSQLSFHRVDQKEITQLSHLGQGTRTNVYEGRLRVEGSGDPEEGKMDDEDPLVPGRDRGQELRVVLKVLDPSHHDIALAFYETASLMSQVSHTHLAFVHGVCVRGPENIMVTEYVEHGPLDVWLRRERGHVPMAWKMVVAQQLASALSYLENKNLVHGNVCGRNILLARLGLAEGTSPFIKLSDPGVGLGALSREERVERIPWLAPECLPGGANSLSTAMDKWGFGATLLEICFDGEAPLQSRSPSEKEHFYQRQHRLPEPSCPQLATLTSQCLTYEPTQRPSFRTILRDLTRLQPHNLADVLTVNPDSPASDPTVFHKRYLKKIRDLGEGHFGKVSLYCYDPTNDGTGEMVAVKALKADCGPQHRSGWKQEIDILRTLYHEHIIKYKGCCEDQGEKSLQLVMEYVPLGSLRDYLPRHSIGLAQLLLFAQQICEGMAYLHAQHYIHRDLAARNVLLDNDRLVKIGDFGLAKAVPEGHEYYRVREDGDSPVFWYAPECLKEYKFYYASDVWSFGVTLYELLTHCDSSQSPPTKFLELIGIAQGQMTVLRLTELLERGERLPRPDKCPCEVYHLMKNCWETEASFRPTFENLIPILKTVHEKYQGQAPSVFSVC

Chain of off-target kinases (Homo sapiens, UniProt Q13882) (Q13882 whole entry): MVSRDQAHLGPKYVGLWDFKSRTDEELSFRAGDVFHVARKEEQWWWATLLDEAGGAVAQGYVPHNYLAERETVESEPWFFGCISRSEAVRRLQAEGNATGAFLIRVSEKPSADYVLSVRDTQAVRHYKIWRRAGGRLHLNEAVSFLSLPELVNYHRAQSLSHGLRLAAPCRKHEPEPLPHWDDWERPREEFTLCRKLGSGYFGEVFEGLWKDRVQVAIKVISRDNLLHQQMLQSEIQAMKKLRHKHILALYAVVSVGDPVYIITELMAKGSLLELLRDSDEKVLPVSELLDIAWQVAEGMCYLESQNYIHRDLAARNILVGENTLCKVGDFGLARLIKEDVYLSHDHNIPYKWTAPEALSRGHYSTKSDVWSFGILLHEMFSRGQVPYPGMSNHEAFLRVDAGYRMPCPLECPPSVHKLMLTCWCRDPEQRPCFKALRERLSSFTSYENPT
Chain of off-target kinases (Homo sapiens, UniProt P10721, A829P) (P10721 26-976 A829P): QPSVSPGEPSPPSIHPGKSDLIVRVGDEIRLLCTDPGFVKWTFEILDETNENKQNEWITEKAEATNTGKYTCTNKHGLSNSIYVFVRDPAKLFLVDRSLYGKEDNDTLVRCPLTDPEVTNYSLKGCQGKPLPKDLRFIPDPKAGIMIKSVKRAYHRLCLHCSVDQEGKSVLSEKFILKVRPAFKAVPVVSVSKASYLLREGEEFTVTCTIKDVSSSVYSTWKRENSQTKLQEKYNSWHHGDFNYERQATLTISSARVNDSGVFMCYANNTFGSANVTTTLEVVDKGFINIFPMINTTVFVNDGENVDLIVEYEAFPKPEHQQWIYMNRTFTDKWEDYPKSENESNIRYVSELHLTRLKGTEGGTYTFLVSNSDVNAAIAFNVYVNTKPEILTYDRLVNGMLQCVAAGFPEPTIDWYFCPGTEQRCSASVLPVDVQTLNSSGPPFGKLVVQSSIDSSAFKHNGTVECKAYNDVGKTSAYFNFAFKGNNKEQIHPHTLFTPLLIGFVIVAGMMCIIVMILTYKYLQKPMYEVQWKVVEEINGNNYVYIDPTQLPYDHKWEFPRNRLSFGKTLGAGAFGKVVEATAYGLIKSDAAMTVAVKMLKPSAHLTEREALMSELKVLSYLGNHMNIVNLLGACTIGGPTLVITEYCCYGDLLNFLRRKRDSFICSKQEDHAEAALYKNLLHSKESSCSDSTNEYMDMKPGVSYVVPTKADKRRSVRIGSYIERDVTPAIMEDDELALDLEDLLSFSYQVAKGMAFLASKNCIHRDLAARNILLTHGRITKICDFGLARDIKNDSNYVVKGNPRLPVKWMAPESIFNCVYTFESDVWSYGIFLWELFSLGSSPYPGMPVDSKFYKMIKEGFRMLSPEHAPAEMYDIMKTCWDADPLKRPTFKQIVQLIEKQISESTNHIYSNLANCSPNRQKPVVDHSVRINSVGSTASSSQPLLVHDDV
Chain of off-target kinases (Homo sapiens, UniProt P29376) (P29376 17-864): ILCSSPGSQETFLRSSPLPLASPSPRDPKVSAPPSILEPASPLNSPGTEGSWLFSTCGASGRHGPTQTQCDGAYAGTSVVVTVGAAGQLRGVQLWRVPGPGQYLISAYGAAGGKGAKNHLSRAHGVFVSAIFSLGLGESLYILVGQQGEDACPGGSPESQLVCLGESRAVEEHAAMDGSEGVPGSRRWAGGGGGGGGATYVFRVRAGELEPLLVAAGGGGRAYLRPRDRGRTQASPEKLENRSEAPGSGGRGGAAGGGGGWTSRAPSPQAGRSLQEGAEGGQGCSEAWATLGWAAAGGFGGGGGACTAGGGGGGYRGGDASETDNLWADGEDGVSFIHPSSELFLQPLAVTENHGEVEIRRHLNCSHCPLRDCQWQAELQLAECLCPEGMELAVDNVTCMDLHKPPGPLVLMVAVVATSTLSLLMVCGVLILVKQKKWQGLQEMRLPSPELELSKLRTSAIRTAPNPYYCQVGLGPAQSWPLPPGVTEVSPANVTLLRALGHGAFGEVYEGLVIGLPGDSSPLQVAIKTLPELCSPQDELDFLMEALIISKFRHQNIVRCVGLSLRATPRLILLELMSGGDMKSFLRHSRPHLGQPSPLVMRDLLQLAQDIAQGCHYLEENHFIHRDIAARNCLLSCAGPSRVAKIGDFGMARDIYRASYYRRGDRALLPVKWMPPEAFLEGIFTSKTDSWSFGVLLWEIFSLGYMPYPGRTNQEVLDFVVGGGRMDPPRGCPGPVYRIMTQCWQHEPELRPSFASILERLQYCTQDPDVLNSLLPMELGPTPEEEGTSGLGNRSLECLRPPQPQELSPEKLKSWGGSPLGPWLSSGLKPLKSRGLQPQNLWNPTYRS
Chain of off-target kinases (Homo sapiens, UniProt Q9Y572) (Q9Y572 whole entry): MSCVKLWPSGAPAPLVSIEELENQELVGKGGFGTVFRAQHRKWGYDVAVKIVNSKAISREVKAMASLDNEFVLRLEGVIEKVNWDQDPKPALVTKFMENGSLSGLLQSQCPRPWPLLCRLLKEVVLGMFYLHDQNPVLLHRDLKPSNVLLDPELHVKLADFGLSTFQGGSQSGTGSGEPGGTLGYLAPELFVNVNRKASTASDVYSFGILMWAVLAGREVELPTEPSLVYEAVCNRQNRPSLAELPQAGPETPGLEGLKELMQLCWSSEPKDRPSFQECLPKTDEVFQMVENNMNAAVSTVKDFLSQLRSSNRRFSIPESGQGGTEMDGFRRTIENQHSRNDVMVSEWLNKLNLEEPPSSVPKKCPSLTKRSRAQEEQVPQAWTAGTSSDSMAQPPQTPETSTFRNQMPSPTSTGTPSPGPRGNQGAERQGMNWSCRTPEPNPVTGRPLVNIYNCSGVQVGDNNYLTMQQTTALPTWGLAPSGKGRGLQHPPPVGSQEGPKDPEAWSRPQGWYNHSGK
Chain of off-target kinases (Homo sapiens, UniProt Q96GD4) (Q96GD4 whole entry): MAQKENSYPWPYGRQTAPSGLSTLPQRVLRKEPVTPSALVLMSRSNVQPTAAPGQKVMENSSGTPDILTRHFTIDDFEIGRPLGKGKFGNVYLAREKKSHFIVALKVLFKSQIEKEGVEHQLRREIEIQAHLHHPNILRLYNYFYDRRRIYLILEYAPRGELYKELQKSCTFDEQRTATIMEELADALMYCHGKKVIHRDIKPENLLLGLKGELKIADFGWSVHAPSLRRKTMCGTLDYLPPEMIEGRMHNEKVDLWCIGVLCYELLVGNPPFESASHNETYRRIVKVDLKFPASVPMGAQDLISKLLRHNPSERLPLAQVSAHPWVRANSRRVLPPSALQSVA

N#Cc1cc(-c2ncnc(Nc3ccc(N4CCN(C5COC5)CC4)cc3)n2)ccc1OC1CCOCC1 [Compound 1, 5-(4-((4-(4-(oxetan-3-yl)piperazin-1-yl)phenyl)amino)-1,3,5-triazin-2-yl)-2-((tetrahydro-2H-pyran-4-yl)oxy)benzonitrile]
inhibition (off-target kinases [1]; read-out: % Inhibition 1): 5%
inhibition (off-target kinases [1]; read-out: % Inhibition 2): 7%
inhibition (off-target kinases [1]; read-out: % Inhibition Avg): 6%
inhibition (off-target kinases [2]; read-out: % Inhibition 1): 42%
inhibition (off-target kinases [2]; read-out: % Inhibition 2): 49%
inhibition (off-target kinases [2]; read-out: % Inhibition Avg): 45%
inhibition (off-target kinases [3]; read-out: % Inhibition 1): 86%
inhibition (off-target kinases [3]; read-out: % Inhibition 2): 86%
inhibition (off-target kinases [3]; read-out: % Inhibition Avg): 86%
inhibition (off-target kinases [4]; read-out: % Inhibition 1): 91%
inhibition (off-target kinases [4]; read-out: % Inhibition 2): 90%
inhibition (off-target kinases [4]; read-out: % Inhibition Avg): 90%
inhibition (off-target kinases [5]; PTK6 (Brk), ZLYTE, ATP Km app, read-out: % Inhibition 2): -1%
inhibition (off-target kinases [5]; read-out: % Inhibition 1): -1%
inhibition (off-target kinases [5]; read-out: % Inhibition Avg): -1%
inhibition (off-target kinases [6]; read-out: % Inhibition 1): 4%
inhibition (off-target kinases [6]; read-out: % Inhibition 2): 1%
inhibition (off-target kinases [6]; read-out: % Inhibition Avg): 3%
inhibition (off-target kinases [7]; read-out: % Inhibition 1): 54%
inhibition (off-target kinases [7]; read-out: % Inhibition 2): 48%
inhibition (off-target kinases [7]; read-out: % Inhibition Avg): 51%
inhibition (off-target kinases [8]; read-out: % Inhibition 1): -1%
inhibition (off-target kinases [8]; read-out: % Inhibition 2): 1%
inhibition (off-target kinases [8]; read-out: % Inhibition Avg): 0%
% Inhibition 1 (off-target kinases [9]): −18%
% Inhibition 2 (off-target kinases [9]): −16%
% Inhibition Avg (off-target kinases [9]): −17%
inhibition (off-target kinases [10]; read-out: % Inhibition 1): 65%
inhibition (off-target kinases [10]; read-out: % Inhibition 2): 64%
inhibition (off-target kinases [10]; read-out: % Inhibition Avg): 64%
